The source made the active and inactive calls.
Experiments:
[1] = HepG2 cell cytotoxicity, dose response, cytotoxicity control for non-replicating M. tuberculosis project (AID 489018); assay type: functional; details: Mycobacterium tuberculosis
fMet-Leu-Phe receptor = target: T1, fMet-Leu-Phe receptor (Homo sapiens, UniProt P21462); assay: formyl peptide receptor binders – dose response (AID 519); assay type: functional
T1 sequence (P21462 whole entry): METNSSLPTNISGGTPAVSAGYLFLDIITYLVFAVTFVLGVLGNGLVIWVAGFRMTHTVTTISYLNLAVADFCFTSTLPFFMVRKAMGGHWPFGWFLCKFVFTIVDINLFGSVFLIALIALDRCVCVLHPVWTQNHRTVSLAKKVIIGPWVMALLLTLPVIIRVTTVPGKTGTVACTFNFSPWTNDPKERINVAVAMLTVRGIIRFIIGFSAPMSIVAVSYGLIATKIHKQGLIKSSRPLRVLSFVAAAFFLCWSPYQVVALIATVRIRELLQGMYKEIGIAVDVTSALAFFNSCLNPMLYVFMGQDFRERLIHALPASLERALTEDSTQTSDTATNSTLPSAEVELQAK

[2] = THP-1 cell cytotoxicity, dose response, cytotoxicity control for non-replicating M. tuberculosis project (AID 489025); assay type: functional
Streptococcus = assay: GAS UMAA2166 growth inhibition – luminescence, BacTiterGlo, counter-screen for streptokinase expression inhibitor project, dose response (AID 1915); assay type: functional, organism-based;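 note: potency for reduction of bacterial viability or growth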
cells [3] = assay type: functional
[4] = system: Streptococcus sp. 'group A'; assay: Streptococcus pyogenes SK(-)GAS viability under kanamycin – luminescence, BacTiterGlo, confirmation, counter-screen for streptokinase expression inhibitor project, dose response (AID 1900); assay type: functional, organism-based
[5] = Vero E6 cell cytotoxicity, dose response, cytotoxicity control for non-replicating M. tuberculosis project, secondary assay (AID 492998); assay type: functional, VeroE6; details: Vero C1008
[6] = NIH3T3 cell viability loss – ATP luminescence, mouse fibroblasts, counter-screen, dose response (AID 2010); assay type: functional, cell-based;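 note: cells exposed to compound for about 90 hours before reading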
Protein RecA = target: T2, Protein RecA (Mycobacterium tuberculosis, UniProt P9WHJ3); assay: Fluorescence Cell-Free Homogeneous Dose Retest to Identify Inhibitors of RecA-Intein Splicing Activity. [Related pubchem assays (depositor defined):AID2097, AID2223, AID489010, AID492950]; assay type: functional
T2 sequence (P9WHJ3 whole entry): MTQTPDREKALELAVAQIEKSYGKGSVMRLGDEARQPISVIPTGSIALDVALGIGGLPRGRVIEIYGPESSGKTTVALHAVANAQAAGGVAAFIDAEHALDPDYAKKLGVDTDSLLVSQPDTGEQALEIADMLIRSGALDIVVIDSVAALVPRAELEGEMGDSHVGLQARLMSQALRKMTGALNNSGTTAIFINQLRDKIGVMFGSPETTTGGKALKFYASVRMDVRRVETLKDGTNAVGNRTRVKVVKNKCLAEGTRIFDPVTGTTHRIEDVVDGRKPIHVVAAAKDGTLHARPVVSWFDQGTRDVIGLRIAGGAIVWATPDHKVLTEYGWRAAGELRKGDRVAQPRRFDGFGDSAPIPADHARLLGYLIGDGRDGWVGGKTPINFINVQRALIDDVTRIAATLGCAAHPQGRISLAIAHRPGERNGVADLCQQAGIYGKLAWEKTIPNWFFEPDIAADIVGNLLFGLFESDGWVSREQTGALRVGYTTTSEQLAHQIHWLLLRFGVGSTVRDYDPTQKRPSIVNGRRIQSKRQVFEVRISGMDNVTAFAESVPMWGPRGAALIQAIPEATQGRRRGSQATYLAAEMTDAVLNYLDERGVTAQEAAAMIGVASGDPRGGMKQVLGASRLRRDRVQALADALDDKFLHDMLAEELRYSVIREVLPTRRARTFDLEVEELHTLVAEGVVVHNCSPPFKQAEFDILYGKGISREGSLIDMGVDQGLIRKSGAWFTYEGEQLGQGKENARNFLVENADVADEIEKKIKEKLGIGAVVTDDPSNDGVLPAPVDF

[7] = target: T3, Replicative DNA helicase DnaB (Mycobacterium tuberculosis, UniProt P9WMR3); assay: DnaB intein splicing inhibitors, dose response, biochemical, cell-free fluorescence (AID 449749); assay type: functional
T3 sequence (P9WMR3 whole entry): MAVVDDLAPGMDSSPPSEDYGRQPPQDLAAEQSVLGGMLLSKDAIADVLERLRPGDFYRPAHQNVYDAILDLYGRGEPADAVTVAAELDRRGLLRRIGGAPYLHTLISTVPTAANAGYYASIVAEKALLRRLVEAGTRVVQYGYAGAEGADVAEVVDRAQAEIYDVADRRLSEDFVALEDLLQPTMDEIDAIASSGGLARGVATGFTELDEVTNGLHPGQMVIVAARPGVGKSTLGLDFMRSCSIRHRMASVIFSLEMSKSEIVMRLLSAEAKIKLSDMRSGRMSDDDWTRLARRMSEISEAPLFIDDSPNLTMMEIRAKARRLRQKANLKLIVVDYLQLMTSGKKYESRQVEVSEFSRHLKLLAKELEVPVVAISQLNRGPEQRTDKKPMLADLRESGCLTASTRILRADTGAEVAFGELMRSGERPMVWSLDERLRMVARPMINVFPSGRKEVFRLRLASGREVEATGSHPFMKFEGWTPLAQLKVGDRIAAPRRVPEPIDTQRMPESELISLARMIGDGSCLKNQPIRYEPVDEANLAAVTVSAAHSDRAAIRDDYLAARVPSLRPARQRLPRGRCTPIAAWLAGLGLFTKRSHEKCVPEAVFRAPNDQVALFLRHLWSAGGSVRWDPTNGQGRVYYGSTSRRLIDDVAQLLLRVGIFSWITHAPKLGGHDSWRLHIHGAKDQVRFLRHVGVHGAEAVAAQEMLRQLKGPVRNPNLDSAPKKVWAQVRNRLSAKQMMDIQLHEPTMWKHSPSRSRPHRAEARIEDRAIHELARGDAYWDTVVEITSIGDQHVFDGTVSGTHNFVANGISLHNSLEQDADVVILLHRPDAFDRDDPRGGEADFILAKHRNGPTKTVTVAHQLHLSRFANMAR

[8] = Intein inhibitors as potential Tuberculosis drugs, a cytotoxicity screen. [Related pubchem assays (depositor defined):AID2221, AID2223, AID434968, AID435010, AID449749, AID449750, AID489010]; assay type: functional
[9] = Trypanosoma cruzi growth suppression in host cells – NIH3T3 host cells, beta-gal luminescence, confirmation (AID 2044); assay type: functional, cell-based;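 note: intracellular parasites grown in NIH/3T3 mouse fibroblasts as host cells; luminescent beta-galactosidase reporter signal from transgenic T. cruzi replicating inside host cells; inhibitors lower the luminescence signal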
[10] = target: T4, Calpain-2 catalytic subunit (Sus scrofa, UniProt P43367); assay: m-calpain protease blockers, concentration series – biochemical, fluorogenic peptide substrate, dose response (AID 1420); assay type: functional
T4 sequence (P43367 whole entry): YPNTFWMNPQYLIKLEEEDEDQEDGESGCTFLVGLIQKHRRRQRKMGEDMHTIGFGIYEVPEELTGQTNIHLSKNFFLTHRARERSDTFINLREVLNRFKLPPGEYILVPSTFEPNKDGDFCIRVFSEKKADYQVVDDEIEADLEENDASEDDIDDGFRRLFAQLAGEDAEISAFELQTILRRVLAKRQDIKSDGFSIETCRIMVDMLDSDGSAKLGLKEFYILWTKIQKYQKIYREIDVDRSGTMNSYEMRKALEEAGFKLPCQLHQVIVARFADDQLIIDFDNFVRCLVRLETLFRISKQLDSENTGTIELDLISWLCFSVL

[11] = target: T5, Voltage-gated N-type calcium channel alpha-1B subunit/Amyloid beta A4 precursor protein-binding family A member 1 (Homo sapiens, UniProt Q00975+Q02410); assay type: protein assay
T5 sequence (Q00975 whole entry): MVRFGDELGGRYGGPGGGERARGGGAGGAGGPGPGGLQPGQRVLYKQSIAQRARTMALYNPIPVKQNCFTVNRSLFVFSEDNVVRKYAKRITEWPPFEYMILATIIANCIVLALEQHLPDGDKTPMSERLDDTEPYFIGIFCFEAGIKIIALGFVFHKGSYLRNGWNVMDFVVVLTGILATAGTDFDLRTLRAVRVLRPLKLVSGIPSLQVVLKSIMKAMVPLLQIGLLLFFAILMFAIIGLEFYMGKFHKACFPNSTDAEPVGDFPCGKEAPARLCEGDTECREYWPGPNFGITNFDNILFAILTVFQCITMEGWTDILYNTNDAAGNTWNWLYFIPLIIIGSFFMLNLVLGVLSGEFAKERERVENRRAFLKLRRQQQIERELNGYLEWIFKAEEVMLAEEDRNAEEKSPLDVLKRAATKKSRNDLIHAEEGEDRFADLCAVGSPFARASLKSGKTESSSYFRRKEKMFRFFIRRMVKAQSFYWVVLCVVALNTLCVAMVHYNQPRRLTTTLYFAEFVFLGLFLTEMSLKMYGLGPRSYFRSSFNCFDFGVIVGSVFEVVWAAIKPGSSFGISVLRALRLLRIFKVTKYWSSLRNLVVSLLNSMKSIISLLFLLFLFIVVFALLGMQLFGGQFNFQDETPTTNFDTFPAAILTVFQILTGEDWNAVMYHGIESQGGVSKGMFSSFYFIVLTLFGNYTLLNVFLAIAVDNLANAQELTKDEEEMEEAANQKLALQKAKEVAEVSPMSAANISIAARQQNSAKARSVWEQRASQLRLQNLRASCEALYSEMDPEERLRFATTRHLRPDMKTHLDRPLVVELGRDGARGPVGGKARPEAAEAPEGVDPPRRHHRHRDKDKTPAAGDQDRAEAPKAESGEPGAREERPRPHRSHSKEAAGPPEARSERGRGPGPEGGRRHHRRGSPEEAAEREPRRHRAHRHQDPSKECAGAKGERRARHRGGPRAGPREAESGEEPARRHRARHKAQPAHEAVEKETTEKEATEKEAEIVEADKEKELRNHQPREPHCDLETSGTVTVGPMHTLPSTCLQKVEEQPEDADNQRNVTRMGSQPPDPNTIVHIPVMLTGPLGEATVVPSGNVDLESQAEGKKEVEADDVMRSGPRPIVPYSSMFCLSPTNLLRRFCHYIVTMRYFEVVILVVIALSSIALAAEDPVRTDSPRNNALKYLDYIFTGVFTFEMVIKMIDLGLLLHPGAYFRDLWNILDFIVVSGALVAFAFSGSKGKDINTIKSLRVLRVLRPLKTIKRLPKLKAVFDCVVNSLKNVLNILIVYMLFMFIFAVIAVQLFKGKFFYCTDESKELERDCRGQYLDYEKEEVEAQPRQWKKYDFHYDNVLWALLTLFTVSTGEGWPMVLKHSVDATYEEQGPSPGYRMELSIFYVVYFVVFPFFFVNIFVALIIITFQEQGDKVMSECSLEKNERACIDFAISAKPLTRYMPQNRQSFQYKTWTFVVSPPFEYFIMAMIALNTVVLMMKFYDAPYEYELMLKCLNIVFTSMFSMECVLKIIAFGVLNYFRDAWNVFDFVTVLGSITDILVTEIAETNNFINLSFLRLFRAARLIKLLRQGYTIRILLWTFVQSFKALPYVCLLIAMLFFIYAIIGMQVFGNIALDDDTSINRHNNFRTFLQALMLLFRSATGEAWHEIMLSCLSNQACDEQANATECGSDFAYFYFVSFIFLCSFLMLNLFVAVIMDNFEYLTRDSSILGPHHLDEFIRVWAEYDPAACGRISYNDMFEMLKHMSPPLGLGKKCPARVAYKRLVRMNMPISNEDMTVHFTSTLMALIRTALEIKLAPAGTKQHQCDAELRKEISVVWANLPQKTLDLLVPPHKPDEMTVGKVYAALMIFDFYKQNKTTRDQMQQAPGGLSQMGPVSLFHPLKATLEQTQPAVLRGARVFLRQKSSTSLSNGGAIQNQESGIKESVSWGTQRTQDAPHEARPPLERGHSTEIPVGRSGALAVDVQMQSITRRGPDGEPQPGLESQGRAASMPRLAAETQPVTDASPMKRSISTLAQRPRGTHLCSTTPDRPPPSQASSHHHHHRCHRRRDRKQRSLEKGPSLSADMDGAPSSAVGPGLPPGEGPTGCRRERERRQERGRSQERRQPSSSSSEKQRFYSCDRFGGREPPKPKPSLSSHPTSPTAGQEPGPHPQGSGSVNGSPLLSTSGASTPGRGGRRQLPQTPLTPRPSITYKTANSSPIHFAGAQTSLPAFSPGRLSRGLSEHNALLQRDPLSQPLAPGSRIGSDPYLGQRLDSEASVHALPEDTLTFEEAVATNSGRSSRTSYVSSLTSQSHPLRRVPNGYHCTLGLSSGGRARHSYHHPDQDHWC
T5 sequence (Q02410 whole entry): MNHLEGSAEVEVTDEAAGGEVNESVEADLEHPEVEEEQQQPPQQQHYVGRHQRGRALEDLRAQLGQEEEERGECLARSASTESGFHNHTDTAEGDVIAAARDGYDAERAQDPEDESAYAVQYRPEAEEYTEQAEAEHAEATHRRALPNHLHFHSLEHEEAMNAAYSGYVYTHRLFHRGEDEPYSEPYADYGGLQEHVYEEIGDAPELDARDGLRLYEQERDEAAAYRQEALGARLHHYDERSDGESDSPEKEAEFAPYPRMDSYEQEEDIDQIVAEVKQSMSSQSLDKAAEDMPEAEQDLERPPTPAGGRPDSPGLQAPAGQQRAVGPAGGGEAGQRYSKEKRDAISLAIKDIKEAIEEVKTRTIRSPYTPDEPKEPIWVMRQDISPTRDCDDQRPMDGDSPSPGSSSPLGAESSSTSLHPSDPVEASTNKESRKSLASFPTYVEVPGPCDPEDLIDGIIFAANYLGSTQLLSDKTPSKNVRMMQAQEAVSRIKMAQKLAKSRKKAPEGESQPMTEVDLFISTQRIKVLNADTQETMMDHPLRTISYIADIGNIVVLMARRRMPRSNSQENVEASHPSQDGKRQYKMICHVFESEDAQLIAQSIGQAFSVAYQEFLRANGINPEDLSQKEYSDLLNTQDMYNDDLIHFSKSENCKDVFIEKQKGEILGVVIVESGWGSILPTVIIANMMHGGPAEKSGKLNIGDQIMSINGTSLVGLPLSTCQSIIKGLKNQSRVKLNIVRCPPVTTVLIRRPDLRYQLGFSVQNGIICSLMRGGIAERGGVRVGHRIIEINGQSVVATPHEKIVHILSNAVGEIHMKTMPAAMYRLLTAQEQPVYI

[12] = target: T5, Voltage-gated N-type calcium channel alpha-1B subunit/Amyloid beta A4 precursor protein-binding family A member 1; assay type: protein assay; remark: listed apart in the source
Hexokinase = Hexokinase (Trypanosoma brucei, UniProt Q38C41); assay: Confirmation assay for inhibitors of Trypanosoma brucei hexokinase 1-Analogue-first series. [Related pubchem assays (depositor defined):AID1430, AID1632, AID2516, AID2560, AID2579, AID2600, AID449725, AID492951]; assay type: functional
Sequence of Hexokinase (Q38C41 whole entry): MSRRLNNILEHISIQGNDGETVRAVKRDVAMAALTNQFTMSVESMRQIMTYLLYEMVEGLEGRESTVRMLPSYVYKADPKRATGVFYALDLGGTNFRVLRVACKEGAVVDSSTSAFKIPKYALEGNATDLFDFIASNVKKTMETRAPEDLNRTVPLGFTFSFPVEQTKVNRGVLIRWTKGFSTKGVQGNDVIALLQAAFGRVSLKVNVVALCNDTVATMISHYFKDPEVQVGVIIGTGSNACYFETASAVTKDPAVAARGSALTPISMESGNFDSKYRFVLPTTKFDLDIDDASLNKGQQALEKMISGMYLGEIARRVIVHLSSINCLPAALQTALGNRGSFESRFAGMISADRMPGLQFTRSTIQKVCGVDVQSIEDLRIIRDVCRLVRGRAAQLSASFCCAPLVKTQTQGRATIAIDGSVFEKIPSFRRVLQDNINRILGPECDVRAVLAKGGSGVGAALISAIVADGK

CAAX prenyl protease 2 = CAAX prenyl protease 2 (Saccharomyces cerevisiae S288c, UniProt Q03530); assay type: biochemical
cells [13] = assay type: functional, cell-based
[14] = Luminescence Cell-Based Dose Confirmation HTS to Identify Inhibitors of Platelet Dense Granule Release. [Related pubchem assays: 1663 (Primary HTS), 1678 (Summary of Project)]; assay type: functional
Beta-galactosidase = Beta-galactosidase (Escherichia coli, UniProt Q8VNN2); assay type: functional
[15] = target: T6, Kappa-type opioid receptor (Homo sapiens, UniProt P41145); assay type: functional
T6 sequence (P41145 whole entry): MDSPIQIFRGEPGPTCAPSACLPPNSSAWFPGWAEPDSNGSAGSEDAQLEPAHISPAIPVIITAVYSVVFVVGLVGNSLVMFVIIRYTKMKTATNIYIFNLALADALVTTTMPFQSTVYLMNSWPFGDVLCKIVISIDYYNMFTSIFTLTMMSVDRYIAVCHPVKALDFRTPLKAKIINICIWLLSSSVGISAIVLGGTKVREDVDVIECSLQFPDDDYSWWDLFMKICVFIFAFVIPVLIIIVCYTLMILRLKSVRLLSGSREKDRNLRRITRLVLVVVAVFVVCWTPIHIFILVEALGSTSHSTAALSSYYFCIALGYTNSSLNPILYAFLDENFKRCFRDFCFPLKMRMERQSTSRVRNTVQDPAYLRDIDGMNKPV

cells [16] = assay type: functional, cell-based; remark: listed apart in the source
[17] = target: T6, Kappa-type opioid receptor; assay type: functional; remark: listed apart in the source
[18] = target: Luciferin 4-monooxygenase (Photinus pyralis, UniProt P08659); assay: inhibition of purified Photinus pyralis luciferase – biochemical, luminescence, dose response (AID 1891)
INS1 = assay: INS-1E survival protection against cytokine death – cell-based, luminescence, retest, dose response (AID 449756); assay type: functional; details: Rattus norvegicus;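 note: cell death triggered by IL-1 beta plus TNF-alpha plus IFN-gamma mixture; protective hits raise ATP signal compared with cytokine alone wells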
[19] = target: T7, Dual specificity protein phosphatase 6 (Rattus norvegicus, UniProt Q64346); assay: inhibition of rat DUSP6 enzyme activity – biochemical, in vitro, primary screen (AID 425)
T7 sequence (Q64346 whole entry): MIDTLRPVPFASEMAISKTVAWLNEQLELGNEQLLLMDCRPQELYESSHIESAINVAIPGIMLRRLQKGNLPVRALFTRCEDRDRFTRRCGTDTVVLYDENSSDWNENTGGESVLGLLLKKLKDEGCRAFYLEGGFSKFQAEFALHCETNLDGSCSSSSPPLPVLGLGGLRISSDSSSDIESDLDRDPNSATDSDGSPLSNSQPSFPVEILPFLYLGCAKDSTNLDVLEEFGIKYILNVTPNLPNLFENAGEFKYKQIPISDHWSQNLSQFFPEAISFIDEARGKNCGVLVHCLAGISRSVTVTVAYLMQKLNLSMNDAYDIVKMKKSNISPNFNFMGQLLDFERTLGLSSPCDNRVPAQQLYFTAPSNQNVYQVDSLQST

[20] = target: Induced myeloid leukemia cell differentiation protein Mcl-1 (Homo sapiens, UniProt Q07820); assay type: functional
[21] = target: T8, Dual specificity protein phosphatase 3 (Homo sapiens, UniProt P51452); assay: VHR1 phosphatase inhibitors, biochemical (AID 1878)
T8 sequence (P51452 whole entry, the tested form may be a part): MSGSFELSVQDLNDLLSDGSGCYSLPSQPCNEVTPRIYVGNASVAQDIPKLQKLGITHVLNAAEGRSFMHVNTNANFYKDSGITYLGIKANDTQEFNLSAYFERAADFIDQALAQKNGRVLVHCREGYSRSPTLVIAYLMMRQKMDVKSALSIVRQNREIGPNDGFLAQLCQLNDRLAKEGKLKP

[22] = target: T9, Polyadenylate-binding protein 1 (Homo sapiens, UniProt P11940); assay: MLLE domain peptide-binding blockers, IC50 – biochemical, fluorescence polarization, FITC-PAM2 peptide, dose response (AID 602259); assay type: functional; details: read-out: IC50_Mean
T9 sequence (P11940 whole entry, the tested form may be a part): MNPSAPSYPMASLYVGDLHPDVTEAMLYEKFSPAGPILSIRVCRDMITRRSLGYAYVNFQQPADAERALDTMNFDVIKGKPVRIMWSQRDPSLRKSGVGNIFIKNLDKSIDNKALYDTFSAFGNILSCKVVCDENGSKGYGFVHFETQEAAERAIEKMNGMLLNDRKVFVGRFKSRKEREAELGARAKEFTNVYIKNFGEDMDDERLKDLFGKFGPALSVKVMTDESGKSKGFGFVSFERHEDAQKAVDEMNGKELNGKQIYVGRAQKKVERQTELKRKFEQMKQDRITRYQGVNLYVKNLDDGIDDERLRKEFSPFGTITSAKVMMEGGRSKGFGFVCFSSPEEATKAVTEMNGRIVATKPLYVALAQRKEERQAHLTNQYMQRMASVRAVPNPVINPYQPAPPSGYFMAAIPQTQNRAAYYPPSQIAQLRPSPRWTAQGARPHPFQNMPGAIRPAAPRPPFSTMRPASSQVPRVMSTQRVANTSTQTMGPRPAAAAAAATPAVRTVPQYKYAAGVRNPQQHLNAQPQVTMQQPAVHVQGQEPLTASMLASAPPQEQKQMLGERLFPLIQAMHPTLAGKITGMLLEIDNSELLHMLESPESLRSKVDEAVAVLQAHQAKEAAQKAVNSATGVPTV

[23] = target: T8, Dual specificity protein phosphatase 3; assay: VHR1 phosphatase inhibitors, primary screen, biochemical, absorbance, uHTS (AID 1654)
[24] = target: T9, Polyadenylate-binding protein 1; assay: MLLE binding blockers, Cy5 peptide tracer – biochemical, fluorescence polarization, Cy5-PAM2 peptide, secondary, miRNA deadenylation inhibitor project, dose response (AID 602260); assay type: functional; details: read-out: IC50_Mean
[25] = target: Eukaryotic translation initiation factor 4E (Mus musculus, UniProt P63073); assay: blockers of eIF4G binding by eIF4E – biochemical, TR-FRET, dose response (AID 855); assay type: functional;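 note: potency for disrupting eIF4E binding to eIF4GI seen as loss of FRET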
Sequence of Eukaryotic translation initiation factor 4E (P63073 whole entry): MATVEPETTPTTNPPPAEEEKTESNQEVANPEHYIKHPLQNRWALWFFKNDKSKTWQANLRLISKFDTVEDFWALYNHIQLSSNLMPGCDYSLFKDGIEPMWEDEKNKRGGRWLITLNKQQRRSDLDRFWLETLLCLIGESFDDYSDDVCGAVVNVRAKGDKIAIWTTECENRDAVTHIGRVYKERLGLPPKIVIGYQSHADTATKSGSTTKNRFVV

O=C(Nc1nnc(-c2ccccc2Cl)o1)c1ccc(S(=O)(=O)N2CCCCCC2)cc1
CC50 [1]: 7.66 µM (active)
Ki (fMet-Leu-Phe receptor): > 66.7 µM (inactive)
CC50 [2]: 3.49 µM (active)
EC50 (Streptococcus): 0.793 µM (active)
IC50 (cells [3]): 14.2 µM (active)
EC50 [4]: 0.266 µM (active)
CC50 [5]: 4.8 µM (active)

CC(C)(C)C1CCc2sc(C(=O)NNC(=O)CCl)cc2C1 (centres undefined)
EC50 [6]: > 60 µM (inconclusive)
EC50 (Protein RecA): 1.47 µM (active)
AC50 [7]: 4.29 µM (active)
CC50 [8]: 3.58 µM (active)
EC50 [9]: 1.75 µM (active)
IC50 [10]: 3.86 µM (active)

O=C(Nc1ccncc1NC(=O)c1cccc([N+](=O)[O-])c1)c1cccc([N+](=O)[O-])c1
IC50 [11]: > 50 µM (inactive)
IC50 [12]: 18.9 µM (active)

CC(C)(C)c1ccc(C(=O)Nc2cc(Cl)c(Br)cc2C(=O)O)cc1
IC50 (Hexokinase): 0.976 µM (active)

Cc1cccc2sc(N(CCN(C)C)C(=O)c3ccc4ccccc4c3)nc12
AC50 (CAAX prenyl protease 2): > 100 µM (inactive)

COc1ccc(C(=O)Nc2ccccc2C(=O)N/N=C/c2ccccn2)cc1OC
EC50 (cells [13]): 16.6 µM (active)
EC50 [14]: 0.298 µM (active)
CC50 [1]: 14.3 µM (active)
EC50 (Beta-galactosidase): > 31.5 µM (inactive)
IC50 [15]: 7.91 µM (active)
EC50 (cells [16]): 8.88 µM (active)
CC50 [2]: 5.29 µM (active)
IC50 (cells [3]): 36.9 µM (active)
IC50 [17]: > 32 µM
EC50 [18]: 1.3 µM (active)
AC50 (INS1): 2.45 µM (active)
CC50 [5]: > 20 µM (active)

OB1OCc2cc(C(F)(F)F)ccc21
IC50 (Hexokinase): > 25 µM (inactive)

Cc1c(/N=N/c2c(-c3ccc([N+](=O)[O-])cc3)[nH]n(C(N)=S)c2=O)cccc1[N+](=O)[O-]
IC50 [11]: > 50 µM (inactive)
IC50 [19]: 7.01 µM (active)
IC50 [20]: 6.05 µM (active)
IC50 [21]: 1.71 µM (active)
IC50 [22]: > 66 µM (inactive)
IC50 [23]: 3.37 µM (active)
IC50 [24]: > 66 µM (inactive)
IC50 [12]: 16.3 µM (active)
IC50 [25]: 50 µM (inactive)
